Results from US20130273196A1, “Pet Food Compositions for Inducing a Satiety Response” (HILL'S PET NUTRITION, INC, priority 2010, published 2013).

Legend:
NPY5R = test: Affymetrix canine GeneChip gene expression analysis in canine cell lines, NPY5R; format: cell-based
Protocol: Gene expression was analyzed using Affymetrix Canine 1 and Canine 2 GeneChip Arrays available commercially from Affymetrix, Inc., Santa Clara, Calif. 95051. Total RNA is reverse transcribed into cDNA. The cDNA is used to generate cRNA which is fragmented and used as probes for GeneChip hybridization. The gene chip is washed and the hybridization signal is measured with an Affymetrix laser scanner. The hybridization data is then validated and normalized for further analysis. Materials: Affymetrix provided most of the reagents and kit. Other reagents listed in the Affymetrix Manual but not supplied in the kit were obtained separately. Refer to GeneChip Expression Analysis Technical Manual (701021 Rev. 4) for the details. Equipment: Eppendorf Microcentrifuge, 1.5 mL DNase and RNase free/sterile microcentrifuge tubes, 50 mL DNase and RNase free/sterile disposable polypropylene tubes, P1000, […] and P2 Rainin Pipetman pipettes, Filter pipette tips for P1000, […] and P2 pipettes, DNase and RNase free/sterile, and Peltier Thermal Cycler PTC-200. Procedure: All procedures followed exactly as described in GeneChip Expression Analysis Technical Manual (Affymetrix Copyright 1999-2003). 5 micrograms of total RNA were used for the first strand cDNA synthesis. Used either Peltier Thermal Cycler PTC-200 or heat block for temperature control on reactions and probe denaturing. The quality control was performed using RNA NanoDrop chips with BioAnalyer 2100. Used 100 Format (Midi Array) for the canine genechip. […] The solvent at the higher of the two concentrations was used as a control. […] Gene expression was measured for the treatment cell lines and controls. The gene expression data was determined to be either “up” or “down”-regulated for any given treatment. The decision on whether a gene is “up” or “down” is based on the fold change, which is calculated as treatment intensity/control intensity for each individual probe.

NPY1R = test: Affymetrix canine GeneChip gene expression analysis in canine cell lines, NPY1R; format: cell-based; settings: in two cell lines tested, amount tested 0.005 mg/mL, 0.025 mg/mL
Protocol: Gene expression was analyzed using Affymetrix Canine 1 and Canine 2 GeneChip Arrays available commercially from Affymetrix, Inc., Santa Clara, Calif. 95051. Total RNA is reverse transcribed into cDNA. The cDNA is used to generate cRNA which is fragmented and used as probes for GeneChip hybridization. The gene chip is washed and the hybridization signal is measured with an Affymetrix laser scanner. The hybridization data is then validated and normalized for further analysis.
Materials: Affymetrix provided most of the reagents and kit. Other reagents listed in the Affymetrix Manual but not supplied in the kit were obtained separately. Refer to GeneChip Expression Analysis Technical Manual (701021 Rev. 4) for the details. […]
Affymetrix canine gene chips Canine-1 and Canine-2 are used to determine the effect of various test substances or ingredients on gene expression in four canine cell lines and appropriate controls. […] Gene expression was measured for the treatment cell lines and controls. The gene expression data was determined to be either “up” or “down”-regulated for any given treatment. The decision on whether a gene is “up” or “down” is based on the fold change, which is calculated as treatment intensity/control intensity for each individual probe.

For `O=C(O[C@@H]1Cc2c(O)cc(O)cc2O[C@@H]1c1cc(O)c(O)c(O)c1)c1cc(O)c(O)c(O)c1` [Epigallocatechin Gallate, epigallocatechin gallate], the Fold change (NPY5R; in all cell lines tested, amount tested 20 ng/mL, 80 ng/mL, fold change = treatment intensity/control intensity) was −1.33 (in all cell lines.
For `O=c1cc(-c2ccc(O)c(O)c2)oc2cc(O)cc(O)c12` [Luteolin, luteolin], the Fold change (NPY5R; in two cell lines tested, amount tested 1 uM, 10 uM) was 1.56 (in two cell lines tested).
In the case of `CC/C=C\C/C=C\C/C=C\C/C=C\C/C=C\CCCC(=O)O` [EPA], the Fold change (NPY5R; in two cell lines tested, amount tested 0.005 mg/mL, 0.025 mg/mL) is reported as −1.82 (in two cell lines and the Fold change (NPY1R) is reported as −1.43 (in two cell lines.
